From patent US7348427B2, “Antipathogenic benzamide compounds” (Genesoft Pharmaceuticals, Inc., priority 2001, dated 2008)

Legend:
[1] = tested on: S. pneumoniae ATCC 49619; assay: MIC, NCCLS broth microdilution assay; assay type: cell-based, Streptococcus pneumoniae; settings: H = S. pneumoniae ATCC 49619
Method in brief: (§1)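 MICs were determined by NCCLS broth microdilution following documents M7-A4 and M11-A4 (1997).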

[2] = tested on: Bacillus cereus (ATCC 11778); assay: MIC, NCCLS broth microdilution assay; assay type: cell-based; settings: A = B. cereus ATCC 11778
Method in brief: (§2)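 Broth microdilution, NCCLS M7-A4/M11-A4/M27-T guidelines; readout = minimal inhibitory concentration. Candida: Manual of Clinical Microbiology method.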

[3] = tested on: Staphylococcus aureus (ATCC 27660, a methicillin resistant strain (MRSA)); assay: MIC, NCCLS broth microdilution assay; assay type: cell-based; settings: F = S. aureus ATCC 27660
Method in brief: as §2

[4] = tested on: Staphylococcus aureus (ATCC 13709, a methicillin sensitive strain (MSSA)); assay: MIC, NCCLS broth microdilution assay; assay type: cell-based; settings: E = S. aureus ATCC 13709
Method in brief: as §2

[5] = tested on: Candida albicans (ATCC 38247); assay: Antifungal MIC assay; assay type: cell-based; settings: B = C. albicans ATCC 38247
Method in brief: as §2

[6] = tested on: E. faecalis ATCC 29212; assay: MIC, NCCLS broth microdilution assay; assay type: cell-based, Enterococcus faecalis; settings: C = E. faecalis ATCC 29212
Method in brief: as §1

Row | SMILES | Minimum Inhibitory Concentration (MIC) [1] | Minimum Inhibitory Concentration (MIC) [2] | Minimum Inhibitory Concentration (MIC) [3] | Minimum Inhibitory Concentration (MIC) [4] | Minimum Inhibitory Concentration (MIC) [5] | Minimum Inhibitory Concentration (MIC) [6]
1 | Cn1cc(NC(=O)c2cc(NC(=O)c3cc(NC(=O)c4ccc(Cl)cc4F)c[nH]3)cn2CCCO)cc1C(=O)NCCN1CCOCC1 [Compound C-14] | +++ (+++ = MIC ≦ 4) | +++ (+++ = MIC ≦ 4) | +++ (+++ = MIC ≦ 4) | +++ (+++ = MIC ≦ 4) | >32 µg/mL | ++ (++ = 4 < MIC < 12)
2 | Cn1cc(NC(=O)c2cc(NC(=O)c3cc(NC(=O)c4ccc(Cl)cc4F)c[nH]3)cn2CCCO)cc1C(=O)NCCN1CCOCC1 [Compound C-15] | +++ (+++ = MIC ≦ 4) | ++ (++ = 4 < MIC < 12) | +++ (+++ = MIC ≦ 4) | ++ (++ = 4 < MIC < 12) | >32 µg/mL | + (+ = 12 ≦ MIC ≦ 32)
3 | Cn1cc(NC(=O)c2cc(NC(=O)c3cc(NC(=O)c4ccc(Cl)cc4F)cn3CCCO)cn2C)cc1C(=O)NCCN1CCOCC1 [Compound C-16] | +++ (+++ = MIC ≦ 4) | +++ (+++ = MIC ≦ 4) | +++ (+++ = MIC ≦ 4) | +++ (+++ = MIC ≦ 4) | >32 µg/mL | +++ (+++ = MIC ≦ 4)
4 | COCn1cc(NC(=O)c2ccc(Cl)cc2F)cc1C(=O)Nc1cc(C(=O)Nc2cc(C(=O)NCCN3CCOCC3)n(C)c2)n(C)c1 [Compound C-17] | +++ (+++ = MIC ≦ 4) | +++ (+++ = MIC ≦ 4) | +++ (+++ = MIC ≦ 4) | +++ (+++ = MIC ≦ 4) | >32 µg/mL | +++ (+++ = MIC ≦ 4)
5 | Cn1cc(NC(=O)c2cc(NC(=O)c3cc(NC(=O)c4ccc(Cl)cc4F)cn3C)cn2CCCCl)cc1C(=O)NCCN1CCOCC1 [Compound C-18] | +++ (+++ = MIC ≦ 4) | +++ (+++ = MIC ≦ 4) | +++ (+++ = MIC ≦ 4) | +++ (+++ = MIC ≦ 4) | >32 µg/mL | +++ (+++ = MIC ≦ 4)
6 | Cn1cc(NC(=O)c2cc(NC(=O)c3cc(NC(=O)c4ccc(Cl)cc4F)c[nH]3)cn2CCCCl)cc1C(=O)NCCN1CCOCC1 [Compound C-19] | +++ (+++ = MIC ≦ 4) | +++ (+++ = MIC ≦ 4) | +++ (+++ = MIC ≦ 4) | +++ (+++ = MIC ≦ 4) | >32 µg/mL | +++ (+++ = MIC ≦ 4)
7 | CCSCCCn1cc(NC(=O)c2cc(NC(=O)c3ccc(Cl)cc3SCC)cn2C)cc1C(=O)Nc1cc(C(=O)Nc2cc(C(=O)NCCN3CCOCC3)n(C)c2)n(C)c1 [Compound C-20] | +++ (+++ = MIC ≦ 4) | >32 µg/mL | >32 µg/mL | >32 µg/mL | >32 µg/mL | >32 µg/mL
8 | Cc1cc(NC(=O)c2cc(NC(=O)c3cc(NC(=O)c4ccc(Cl)cc4NCCN4CCOCC4)cn3C)c[nH]2)sn1 [Compound C-21] | +++ (+++ = MIC ≦ 4) | ++ (++ = 4 < MIC < 12) | +++ (+++ = MIC ≦ 4) | ++ (++ = 4 < MIC < 12) | >32 µg/mL | ++ (++ = 4 < MIC < 12)
9 | Cc1cc(NC(=O)c2cc(NC(=O)c3cc(NC(=O)c4ccc(Cl)cc4NCCN4CCCCC4)cn3C)c[nH]2)sn1 [Compound C-22] | +++ (+++ = MIC ≦ 4) | +++ (+++ = MIC ≦ 4) | +++ (+++ = MIC ≦ 4) | +++ (+++ = MIC ≦ 4) | + (+ = 12 ≦ MIC ≦ 32) | +++ (+++ = MIC ≦ 4)
10 | Cc1cc(NC(=O)c2cc(NC(=O)c3cc(NC(=O)c4ccc(Cl)cc4NCCN4CCCC4)cn3C)c[nH]2)sn1 [Compound C-23] | +++ (+++ = MIC ≦ 4) | +++ (+++ = MIC ≦ 4) | +++ (+++ = MIC ≦ 4) | +++ (+++ = MIC ≦ 4) | >32 µg/mL | ++ (++ = 4 < MIC < 12)
11 | Cc1cc(NC(=O)c2cc(NC(=O)c3cc(NC(=O)c4ccc(Cl)cc4NCCN4CCSCC4)cn3C)c[nH]2)sn1 [Compound C-24] | +++ (+++ = MIC ≦ 4) | ++ (++ = 4 < MIC < 12) | +++ (+++ = MIC ≦ 4) | ++ (++ = 4 < MIC < 12) | >32 µg/mL | ++ (++ = 4 < MIC < 12)
12 | Cc1cc(NC(=O)c2cc(NC(=O)c3cc(NC(=O)c4ccc(Cl)cc4NCCCN4CCOCC4)cn3C)c[nH]2)sn1 [Compound C-25] | +++ (+++ = MIC ≦ 4) | >32 µg/mL | >32 µg/mL | >32 µg/mL | >32 µg/mL | >32 µg/mL
13 | Cc1cc(NC(=O)c2cc(NC(=O)c3cc(NC(=O)c4ccc(F)cc4F)cn3C)cn2CCN2CCOCC2)sn1 [Compound D-1] | +++ (+++ = MIC ≦ 4) | +++ (+++ = MIC ≦ 4) | +++ (+++ = MIC ≦ 4) | +++ (+++ = MIC ≦ 4) | >32 µg/mL | +++ (+++ = MIC ≦ 4)
14 | Cn1cc(NC(=O)c2ccc(F)cc2F)cc1C(=O)Nc1cc(C(=O)Nc2cc(C(=O)NCCN3CCCCC3)n(CCN3CCCCC3)c2)n(C)c1 [Compound D-5] | +++ (+++ = MIC ≦ 4) | +++ (+++ = MIC ≦ 4) | +++ (+++ = MIC ≦ 4) | +++ (+++ = MIC ≦ 4) | >32 µg/mL | +++ (+++ = MIC ≦ 4)
15 | Cc1cc(NC(=O)c2cc(NC(=O)c3cc(NC(=O)c4ccc(F)cc4F)cn3C)cn2CCC[N+](C)(C)C)sn1 [Compound D-6] | +++ (+++ = MIC ≦ 4) | + (+ = 12 ≦ MIC ≦ 32) | + (+ = 12 ≦ MIC ≦ 32) | >32 µg/mL | >32 µg/mL | + (+ = 12 ≦ MIC ≦ 32)
16 | CN(C)CCCn1cc(NC(=O)c2cc(NC(=O)c3ccc(F)cc3F)cn2C)cc1C(=O)Nc1cc(C(=O)NCCN2CCOCC2)n(C)c1 [Compound D-7] | +++ (+++ = MIC ≦ 4) | +++ (+++ = MIC ≦ 4) | +++ (+++ = MIC ≦ 4) | +++ (+++ = MIC ≦ 4) | + (+ = 12 ≦ MIC ≦ 32) | +++ (+++ = MIC ≦ 4)
17 | Cn1cc(NC(=O)c2cc(NC(=O)c3ccc(Cl)cc3F)c[nH]2)cc1C(=O)Nc1cc(C(=O)NCCN2CCCCC2)n(CCN2CCCCC2)c1 [Compound D-14] | +++ (+++ = MIC ≦ 4) | +++ (+++ = MIC ≦ 4) | +++ (+++ = MIC ≦ 4) | +++ (+++ = MIC ≦ 4) | >32 µg/mL | +++ (+++ = MIC ≦ 4)
18 | Cc1cc(NC(=O)c2cc(NC(=O)c3cc(NC(=O)c4ccc(Cl)cc4F)cn3CCCN(C)C)c[nH]2)sn1 [Compound D-15] | +++ (+++ = MIC ≦ 4) | +++ (+++ = MIC ≦ 4) | +++ (+++ = MIC ≦ 4) | +++ (+++ = MIC ≦ 4) | +++ (+++ = MIC ≦ 4) | +++ (+++ = MIC ≦ 4)
19 | Cc1cc(NC(=O)c2cc(NC(=O)c3cc(NC(=O)c4ccc(Cl)cc4F)c[nH]3)cn2CCC[N+](C)(C)C)sn1 [Compound D-23] | +++ (+++ = MIC ≦ 4) | +++ (+++ = MIC ≦ 4) | +++ (+++ = MIC ≦ 4) | +++ (+++ = MIC ≦ 4) | ++ (++ = 4 < MIC < 12) | +++ (+++ = MIC ≦ 4)
20 | Cc1cc(NC(=O)c2cc(NC(=O)c3cc(NC(=O)c4ccc(Cl)cc4F)cn3CCCN3CCC(O)CC3)c[nH]2)sn1 [Compound D-24] | +++ (+++ = MIC ≦ 4) | +++ (+++ = MIC ≦ 4) | +++ (+++ = MIC ≦ 4) | +++ (+++ = MIC ≦ 4) | +++ (+++ = MIC ≦ 4) | +++ (+++ = MIC ≦ 4)
